Source: US20250099383A1, “COMPOSITIONS AND METHODS FOR DELIVERY OF NUCLEIC ACIDS” (Poseida Therapeutics, Inc., priority 2022, published 2025)

Columns and labels:
[1] = Physical characteristics of LNPs (particle size, PDI); type: physicochemical; settings: for PDI DNA / Particle Size (nm) DNA: LNP with Fluc DNA, compound/DOPE/Cholesterol/DMG-PEG2000 38/50/10.0/2.0, Lipid:DNA 45:1 (w/w); for PDI RNA / Particle Size (nm) RNA: LNP with Fluc mRNA, compound/DOPE/Cholesterol/DMG-PEG2000 41.44/45.85/10/2.7, Lipid:RNA 40:1 (w/w)
Protocol: LNP compositions of the present disclosure comprising exemplary compounds of Formula (I) were prepared by combining various percentages of an exemplary compound of Formula (I), the phospholipid DOPE, the structural lipid cholesterol (Chol) and 1,2-dimyristoyl-sn-glycerol methoxypolyethylene glycol (DMG-PEG2000; Avanti Polar Lipids, Alabaster, Alabama, USA).
Individual 25 mg/ml stock solutions were prepared by solubilizing the lipids in 200-proof HPLC-grade ethanol and stock solutions were stored at −80° C. until formulated. At the time of formulation, the lipid stock solutions were briefly allowed to equilibrate to room temp and then placed on a hot plate maintained at a temperature range of 50-55° C.
A 1 mg/ml solution of the desired mRNA or DNA to be incorporated into the LNPs was added to 150 mM sodium acetate buffer (pH 5.2) to form a stock solution and kept on ice. The aqueous mRNA or DNA was then added to the lipids as shown in Table 4 or 5 and hand-mixed vigorously with a single channel pipettor.
The resultant mRNA or DNA LNP compositions were then transferred to a Repligen Float-A-Lyzer dialysis device-having a molecular weight cut off (MWCO) of 8-10 kDa (Spectrum Chemical Mfg. Corp, CA, USA) and processed by dialysis against phosphate buffered saline (PBS) (dialysate: dialysis buffer volume at least 1:200 v/v), pH 7.4 overnight at 4° C. (or alternatively room temperature for at least 4 hours), to remove the 25% ethanol and achieve a complete buffer exchange. In some experiments the LNPs were further concentrated by in an Amicon® Ultra-4 centrifugal filter unit, MWCO-30 kDa (Millipore Sigma, USA) spun at ˜4100 x g in an ultracentrifuge. The mRNA and DNA LNPs were then stored at 4° C. until further use.
LNP compositions of the present disclosure comprising mRNA or DNA encoding firefly luciferase (hereafter “Fluc”; TriLink) and COMPOUNDS 5-49 were prepared as described in Example 61 by combining one of COMPOUNDS 5-49, the phospholipid DOPE, the structural lipid cholesterol (Chol) and 1,2-dimyristoyl-sn-glycerol methoxypolyethylene glycol (DMG-PEG2000) in the percentages presented in Tables 6 and 7:
The physical characteristics of the resulting LNPs were analyzed.
A 1 mg/ml solution of the 5′-CleanCap--fLuciferase mRNA (TriLink Biotech) to be incorporated into the LNPs was added to 150 mM sodium acetate buffer (pH 5.2) to form a stock solution and kept on ice. The lipid phase was mixed with the aqueous mRNA phase inside a microfluidic chip using a NanoAssemblr® instrument (Precision Nanosystems, Vancouver, BC, Canada) according to the manufacturer's instructions to form LNP compositions comprising encapsulated mRNAs.
The average particle size diameter of the LNPs was approximately 75-150 nm.

liver cells = experiment: In vivo LNP delivery of firefly luciferase mRNA to liver, bioluminescent imaging (BLI); design: species or system BALB/C mice; settings: adult female BALB/C mice; 0.5 mg/kg fLuciferase mRNA i.v.; LNP as in Example 66; BLI at 4 hr
Protocol: Adult female BALB/C mice (n=3/group) were intravenously administered 0.5 mg/kg of 5′-CleanCap-fLuciferase mRNA (TriLink Biotech) formulated with LNP compositions as described in Example 66. One group of mice was treated with vehicle (PBS, Thermo Fisher Scientific, USA) as a negative control.
The location and extent of luciferase expression in treated and control mice were determined at 4 hr by bioluminescent imaging (BLI) of anesthetized mice using an IVIS Lumina in vivo imaging system (Perkin Elmer) according to the manufacturer's instructions. Briefly, mice were anesthetized using isoflurane in oxygen, and placed supine on a heated stage. Mice were then administered D-luciferin (Perkin-Elmer #122799) IP, and BLI was performed.
Adult female BALB/C mice (n=3/group) were intravenously administered 0.5 mg/kg of 5′-CleanCap-fLuciferase mRNA (TriLink Biotech) formulated with the LNP compositions shown in Table 25. One group of mice was treated with vehicle (PBS, Thermo Fisher Scientific, USA) as a negative control. […]

[2] = Body weight change of mice after LNP administration; type: in vivo, BALB/C mice; settings: 24 hrs after 0.5 mg/kg LNP encapsulating firefly luciferase mRNA; adult female BALB/C mice
Protocol: The mice above were also monitored for changes in body weight after LNP delivery. Mice were manually weighed on a scale before LNP dosage and then weighed 24 hrs after administration of 0.5 mg/kg of LNP article encapsulating Cleancap firefly luciferase mRNA. The average of weight change n=3 is reported below.
In addition, the body weight of mice treated with the LNP compositions of Table 25 was assessed prior to intravenous administration and twenty-four hours post-administration and the body weights at baseline and post-treatment were compared. The average percentage of body weight change for each group of mice treated with each LNP composition of Table 25 is shown in Table 28. […]

CC(C)=CCC/C(C)=C/CCC1=CCC(C(=O)OCCOC(=O)CCN(CCC(=O)OCCOC(=O)C2CC=C(CC/C=C(\C)CCC=C(C)C)CC2)CC(C)N(CCC(=O)OCCOC(=O)C2CC=C(CC/C=C(\C)CCC=C(C)C)CC2)CCC(=O)OCCOC(=O)C2CC=C(CC/C=C(\C)CCC=C(C)C)CC2)CC1 (centres unmarked) [Compound 8]
PDI DNA [1]: 0.167 | Particle Size (nm) DNA [1]: 319.6 nm | PDI RNA [1]: 0.073 | Particle Size (nm) RNA [1]: 312.8 nm | Ave flux (p/s) n = 3 (liver cells): 1.10E+07 p/s | Ave weight change (gram) n = 3 [2]: −2.53 gram

CC(C)CCCC1CCC(C(=O)OCCOC(=O)CCN(CCC(=O)OCCOC(=O)C2CCC(CCCC(C)C)CC2)CCN(CCN(CCC(=O)OCCOC(=O)C2CCC(CCCC(C)C)CC2)CCC(=O)OCCOC(=O)C2CCC(CCCC(C)C)CC2)CCN(CCC(=O)OCCOC(=O)C2CCC(CCCC(C)C)CC2)CCC(=O)OCCOC(=O)C2CCC(CCCC(C)C)CC2)CC1 (centres unmarked) [Compound 31]
PDI DNA [1]: 0.063 | Particle Size (nm) DNA [1]: 267.9 nm | PDI RNA [1]: 0.145 | Particle Size (nm) RNA [1]: 339.9 nm | Ave flux (p/s) n = 3 (liver cells): 2.24E+09 p/s | Ave weight change (gram) n = 3 [2]: −4.10 gram

CC(C)=CCC/C(C)=C/CCC1=CCC(C(=O)OCCOC(=O)CCN(CCC(=O)OCCOC(=O)C2CC=C(CC/C=C(\C)CCC=C(C)C)CC2)CCN(CCN(CCC(=O)OCCOC(=O)C2CC=C(CC/C=C(\C)CCC=C(C)C)CC2)CCC(=O)OCCOC(=O)C2CC=C(CC/C=C(\C)CCC=C(C)C)CC2)CCN(CCC(=O)OCCOC(=O)C2CC=C(CC/C=C(\C)CCC=C(C)C)CC2)CCC(=O)OCCOC(=O)C2CC=C(CC/C=C(\C)CCC=C(C)C)CC2)CC1 (centres unmarked) [Compound 11]
PDI DNA [1]: 0.152 | Particle Size (nm) DNA [1]: 396.1 nm | PDI RNA [1]: 0.145 | Particle Size (nm) RNA [1]: 355.6 nm

CC(C)CCCC(C)CCCC1CCC(C(=O)OCCOC(=O)CCN(CCC(=O)OCCOC(=O)C2CCC(CCCC(C)CCCC(C)C)CC2)CCN2CCCCC2)CC1 (centres unmarked) [Compound 13, ((3,3′-((2-(piperidin-1-yl)ethyl)azanediyl)bis(propanoyl))bis(oxy)) bis(ethane-2,1-diyl)bis(4-(4,8-dimethylnonyl)cyclohexanecarboxylate)]
PDI DNA [1]: 0.232 | Particle Size (nm) DNA [1]: 174.1 nm | PDI RNA [1]: 0.272 | Particle Size (nm) RNA [1]: 120.6 nm

CC(C)=CCCC1=CCC(C(=O)OCCN2CCN(CCOC(=O)C3CC=C(CCC=C(C)C)CC3)CC2)CC1 (centres unmarked) [Compound 46]
PDI DNA [1]: 0.116 | Particle Size (nm) DNA [1]: 309 nm | PDI RNA [1]: 0.078 | Particle Size (nm) RNA [1]: 334.6 nm

CC(C)=CCC/C(C)=C/CCC1=CCC(C(=O)OCCN(C)CCO)CC1 (centres unmarked) [Compound 40]
PDI DNA [1]: 0.146 | Particle Size (nm) DNA [1]: 251.2 nm | PDI RNA [1]: 0.179 | Particle Size (nm) RNA [1]: 255.5 nm

CC(C)=CCCC1=CCC(C(=O)OCCN(C)CCOC(=O)C2CC=C(CCC=C(C)C)CC2)CC1 (centres unmarked) [Compound 42]
PDI DNA [1]: 0.039 | Particle Size (nm) DNA [1]: 289.2 nm | PDI RNA [1]: 0.121 | Particle Size (nm) RNA [1]: 304.2 nm

CC(C)CCCC(C)CCCC1CCC(C(=O)OCCOC(=O)CCN(CCCN(C)CCCN(CCC(=O)OCCOC(=O)C2CCC(CCCC(C)CCCC(C)C)CC2)CCC(=O)OCCOC(=O)C2CCC(CCCC(C)CCCC(C)C)CC2)CCC(=O)OCCOC(=O)C2CCC(CCCC(C)CCCC(C)C)CC2)CC1 (centres unmarked) [Compound 17]
PDI DNA [1]: 0.129 | Particle Size (nm) DNA [1]: 287.7 nm | PDI RNA [1]: 0.145 | Particle Size (nm) RNA [1]: 293.3 nm | Ave flux (p/s) n = 3 (liver cells): 2.96E+10 p/s | Ave weight change (gram) n = 3 [2]: −3.10 gram

CCCCCCCC/C=C\CCCCCCCC(=O)OCCN(C)CCOC(=O)C1CC=C(CC/C=C(\C)CCC=C(C)C)CC1 (centres unmarked) [Compound 41]
PDI DNA [1]: 0.085 | Particle Size (nm) DNA [1]: 295.1 nm | PDI RNA [1]: 0.057 | Particle Size (nm) RNA [1]: 306.1 nm

CCN(CCOC(=O)C1CC=C(CCC=C(C)C)CC1)CCOC(=O)C1CC=C(CCC=C(C)C)CC1 (centres unmarked) [Compound 43]
PDI DNA [1]: 0.185 | Particle Size (nm) DNA [1]: 286.7 nm | PDI RNA [1]: 0.079 | Particle Size (nm) RNA [1]: 310.1 nm

CC(C)=CCCC1=CCC(C(=O)OCCOC(=O)CCN(CCCCCCN(CCC(=O)OCCOC(=O)C2CC=C(CCC=C(C)C)CC2)CCC(=O)OCCOC(=O)C2CC=C(CCC=C(C)C)CC2)CCC(=O)OCCOC(=O)C2CC=C(CCC=C(C)C)CC2)CC1 (centres unmarked) [Compound 20]
PDI DNA [1]: 0.223 | Particle Size (nm) DNA [1]: 304.3 nm | PDI RNA [1]: 0.082 | Particle Size (nm) RNA [1]: 316.9 nm

CC(C)=CCCC1=CCC(C(=O)OCCN(CCOC(=O)C2CC=C(CCC=C(C)C)CC2)C(C)(C)C)CC1 (centres unmarked) [Compound 45]
PDI DNA [1]: 0.082 | Particle Size (nm) DNA [1]: 340.4 nm | PDI RNA [1]: 0.131 | Particle Size (nm) RNA [1]: 356.1 nm

CC(C)CCCC(C)CCCC1CCC(C(=O)OCCOC(=O)CCN(CCCN(C)C)CCC(=O)OCCOC(=O)C2CCC(CCCC(C)CCCC(C)C)CC2)CC1 (centres unmarked) [Compound 12, ((3,3′-((3-(dimethylamino)propyl)azanediyl)bis(propanoyl))bis(oxy)) bis(ethane-2,1-diyl)bis(4-(4,8-dimethylnonyl)cyclohexanecarboxylate)]
PDI DNA [1]: 0.235 | Particle Size (nm) DNA [1]: 170.6 nm | PDI RNA [1]: 0.235 | Particle Size (nm) RNA [1]: 167.6 nm

CCN(CCOC(=O)C1CC=C(CC/C=C(\C)CCC=C(C)C)CC1)CCOC(=O)C1CC=C(CC/C=C(\C)CCC=C(C)C)CC1 (centres unmarked) [Compound 33]
PDI DNA [1]: 0.087 | Particle Size (nm) DNA [1]: 302 nm | PDI RNA [1]: 0.079 | Particle Size (nm) RNA [1]: 332.9 nm

CC(C)=CCC/C(C)=C/CCC1=CCC(C(=O)OCCOC(=O)CCN(CCCN(C)C)CCC(=O)OCCOC(=O)C2CC=C(CC/C=C(\C)CCC=C(C)C)CC2)CC1 (centres unmarked) [Compound 5, (E)-((3,3′-((3-(dimethylamino)propyl)azanediyl)bis(propanoyl))bis(oxy)) bis(ethane-2,1-diyl)bis(4-((E)-4,8-dimethylnona-3,7-dien-1-yl)cyclohex-3-enecarboxylate)]
PDI DNA [1]: 0.203 | Particle Size (nm) DNA [1]: 187.9 nm | PDI RNA [1]: 0.200 | Particle Size (nm) RNA [1]: 180.3 nm

CC(C)=CCC/C(C)=C/CCC1=CCC(C(=O)CCCN(CCO)CCOC(=O)C2CC=C(CC/C=C(\C)CCC=C(C)C)CC2)CC1 (centres unmarked) [Compound 39]
PDI DNA [1]: 0.138 | Particle Size (nm) DNA [1]: 272.5 nm | PDI RNA [1]: 0.064 | Particle Size (nm) RNA [1]: 297.1 nm

CC(C)CCCC(C)CCCC1CCC(C(=O)OCCOC(=O)CCN(CCC(=O)OCCOC(=O)C2CCC(CCCC(C)CCCC(C)C)CC2)CCN(CCN(CCC(=O)OCCOC(=O)C2CCC(CCCC(C)CCCC(C)C)CC2)CCC(=O)OCCOC(=O)C2CCC(CCCC(C)CCCC(C)C)CC2)CCN(CCC(=O)OCCOC(=O)C2CCC(CCCC(C)CCCC(C)C)CC2)CCC(=O)OCCOC(=O)C2CCC(CCCC(C)CCCC(C)C)CC2)CC1 (centres unmarked) [Compound 18]
PDI DNA [1]: 0.072 | Particle Size (nm) DNA [1]: 368.6 nm | PDI RNA [1]: 0.153 | Particle Size (nm) RNA [1]: 323.3 nm
